Measurements reported in PubChem BioAssay AID248 (DTP/NCI, 2004).
Values joined by “and” are separate entries in the source; they are usually repeats but may differ in a detail not shown here. Identical values can stand only once. Inconclusive results and toxic doses are left out.

System: L1210 leukemia ip in BDF1 mice, survival T/C
Assay: NCI In Vivo Anticancer Drug Screen. Data for tumor model L1210 Leukemia (intraperitoneal) in B6D2F1 (BDF1) mice
Settings: higher = longer survival
Summary of the method: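 Antitumor effect is assessed in tumor-bearing animals. Survival in the compound arm is compared with a vehicle-dosed control arm and expressed as their quotient.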

[1] = endpoint: mean survival time, dose: 100.0 mg/kg/injection, schedule: Q04DX002 (ip), vehicle: Klucel (hydroxypropylcellulose) (HPC)
[2] = endpoint: mean survival time, dose: 200.0 mg/kg/injection, schedule: Q04DX002 (ip), vehicle: Klucel (hydroxypropylcellulose) (HPC)
[3] = endpoint: mean survival time, dose: 400.0 mg/kg/injection, schedule: Q04DX002 (ip), vehicle: Klucel (hydroxypropylcellulose) (HPC)
[4] = endpoint: mean survival time, dose: 100.0 mg/kg/injection, schedule: Q01DX009 (ip), vehicle: Klucel (hydroxypropylcellulose) (HPC)
[5] = endpoint: mean survival time, dose: 200.0 mg/kg/injection, schedule: Q01DX009 (ip), vehicle: Klucel (hydroxypropylcellulose) (HPC)
[6] = endpoint: mean survival time, dose: 400.0 mg/kg/injection, schedule: Q01DX009 (ip), vehicle: Klucel (hydroxypropylcellulose) (HPC)
[7] = endpoint: mean survival time, dose: 25.0 mg/kg/injection, schedule: Q01DX009 (ip), vehicle: Klucel (hydroxypropylcellulose) (HPC)
[8] = endpoint: mean survival time, dose: 50.0 mg/kg/injection, schedule: Q01DX009 (ip), vehicle: Klucel (hydroxypropylcellulose) (HPC)
[9] = endpoint: mean survival time, dose: 100.0 mg/kg/injection, schedule: Q04DX003 (ip), vehicle: Klucel (hydroxypropylcellulose) (HPC)
[10] = endpoint: mean survival time, dose: 200.0 mg/kg/injection, schedule: Q04DX003 (ip), vehicle: Klucel (hydroxypropylcellulose) (HPC)
[11] = endpoint: mean survival time, dose: 400.0 mg/kg/injection, schedule: Q04DX003 (ip), vehicle: Klucel (hydroxypropylcellulose) (HPC)
[12] = endpoint: mean survival time, dose: 25.0 mg/kg/injection, schedule: Q04DX002 (ip), vehicle: saline with Tween-80
[13] = endpoint: mean survival time, dose: 100.0 mg/kg/injection, schedule: Q04DX002 (ip), vehicle: saline with Tween-80
[14] = endpoint: mean survival time, dose: 100.0 mg/kg/injection, schedule: Q01DX009 (ip), vehicle: saline with Tween-80
[15] = endpoint: mean survival time, dose: 150.0 mg/kg/injection, schedule: Q01DX009 (ip), vehicle: Klucel (hydroxypropylcellulose) (HPC)
[16] = endpoint: mean survival time, dose: 200.0 mg/kg/injection, schedule: Q04DX002 (ip), vehicle: saline with Tween-80

SMILES: CC(C)(C)C(=O)CC(=O)C(C)(C)C.CC(C)(C)C(=O)CC(=O)C(C)(C)C.CC(C)(C)C(=O)CC(=O)C(C)(C)C.[Eu]
- T/C [1]: 97 % of control
- T/C [2]: 106 % of control
- T/C [3]: 87 % of control

SMILES: O=C(Nc1ccccc1O)c1ccccc1Cl
- T/C [4]: 96 % of control
- T/C [5]: 98 % of control
- T/C [6]: 91 % of control

SMILES: N#Cc1ccc(NC(=O)COc2cccc(Cl)c2)cc1
- T/C (endpoint: mean survival time, dose: 37.5 mg/kg/injection, schedule: Q01DX001 (ip), vehicle: saline with Tween-80): 95 % of control
- T/C (endpoint: mean survival time, dose: 150.0 mg/kg/injection, schedule: Q01DX001 (ip), vehicle: saline with Tween-80): 92 % of control

SMILES: O=C(Nc1cc([N+](=O)[O-])ccc1O)c1ccc(Cl)c(Cl)c1
- T/C [4]: 104 % of control
- T/C [5]: 95 % of control
- T/C [6]: 93 % of control

SMILES: S=C(NCc1cccc(Cl)c1)Nc1ccccc1
- T/C [7]: 98 % of control
- T/C [8]: 106 % of control
- T/C [4]: 93 % of control

SMILES: O=NSC(c1ccccc1)(c1ccccc1)c1ccccc1
- T/C [8]: 94 % of control
- T/C [4]: 89 % of control
- T/C [5]: 93 % of control

SMILES: N#CCCCCN=[N+]=[N-]
- T/C (endpoint: mean survival time, dose: 37.5 mg/kg/injection, schedule: Q04DX003 (ip), vehicle: saline): 87 % of control
- T/C (endpoint: mean survival time, dose: 75.0 mg/kg/injection, schedule: Q04DX003 (ip), vehicle: saline): 104 % of control
- T/C (endpoint: mean survival time, dose: 150.0 mg/kg/injection, schedule: Q04DX003 (ip), vehicle: saline): 98 % of control

SMILES: O=C(NCCCl)Nc1ccc2c(c1)CCC2
- T/C [9]: 94 % of control and 107 % of control
- T/C [10]: 103 % of control and 90 % of control
- T/C [11]: 92 % of control

SMILES: CC(C)(CC(=O)O)NC(=O)CN
- T/C (endpoint: mean survival time, dose: 100.0 mg/kg/injection, schedule: Q04DX002 (ip), vehicle: saline): 94 % of control
- T/C (endpoint: mean survival time, dose: 200.0 mg/kg/injection, schedule: Q04DX002 (ip), vehicle: saline): 91 % of control
- T/C (endpoint: mean survival time, dose: 400.0 mg/kg/injection, schedule: Q04DX002 (ip), vehicle: saline): 97 % of control

SMILES: CCOP(=O)(OCC)Oc1c(Cl)c(Cl)c(OC(=O)Nc2cc(Cl)ccc2Cl)c(Cl)c1Cl
- T/C [12]: 90 % of control
- T/C (endpoint: mean survival time, dose: 50.0 mg/kg/injection, schedule: Q04DX002 (ip), vehicle: saline with Tween-80): 97 % of control
- T/C [13]: 94 % of control

SMILES: COc1ccc(OC)c(/C=C/c2cccn[n+]2C)c1
- T/C (endpoint: mean survival time, dose: 50.0 mg/kg/injection, schedule: Q01DX009 (ip), vehicle: saline with Tween-80): 101 % of control
- T/C [14]: 114 % of control

SMILES: CCN(CC)CCC(C=NCC(CCN(CC)CC)(c1cccc2ccccc12)C(C)C)(c1cccc2ccccc12)C(C)C (stereo not drawn)
- T/C (endpoint: mean survival time, dose: 1.5 mg/kg/injection, schedule: Q04DX002 (ip), vehicle: saline + alcohol): 108 % of control
- T/C (endpoint: mean survival time, dose: 3.1 mg/kg/injection, schedule: Q04DX002 (ip), vehicle: saline + alcohol): 102 % of control
- T/C (endpoint: mean survival time, dose: 6.25 mg/kg/injection, schedule: Q04DX002 (ip), vehicle: saline + alcohol): 94 % of control
- T/C (endpoint: mean survival time, dose: 12.5 mg/kg/injection, schedule: Q04DX002 (ip), vehicle: saline + alcohol): 92 % of control
- T/C (endpoint: mean survival time, dose: 25.0 mg/kg/injection, schedule: Q04DX002 (ip), vehicle: saline + alcohol): 92 % of control
- T/C [12]: 92 % of control

SMILES: O=S(=O)(O)CCO
- T/C (endpoint: mean survival time, dose: 50.0 mg/kg/injection, schedule: Q01DX009 (ip), vehicle: saline): 99 % of control
- T/C (endpoint: mean survival time, dose: 100.0 mg/kg/injection, schedule: Q01DX009 (ip), vehicle: saline): 95 % of control
- T/C (endpoint: mean survival time, dose: 100.0 mg/kg/injection, schedule: Q04DX003 (ip), vehicle: saline): 97 % of control
- T/C (endpoint: mean survival time, dose: 200.0 mg/kg/injection, schedule: Q01DX009 (ip), vehicle: saline): 99 % of control
- T/C (endpoint: mean survival time, dose: 200.0 mg/kg/injection, schedule: Q04DX003 (ip), vehicle: saline): 101 % of control
- T/C (endpoint: mean survival time, dose: 400.0 mg/kg/injection, schedule: Q04DX003 (ip), vehicle: saline): 101 % of control

SMILES: COc1cc(C(=O)N/N=C/N(C)C)cc(OC)c1OC
- T/C (endpoint: mean survival time, dose: 75.0 mg/kg/injection, schedule: Q01DX009 (ip), vehicle: Klucel (hydroxypropylcellulose) (HPC)): 109 % of control
- T/C [9]: 99 % of control
- T/C [15]: 102 % of control
- T/C [10]: 99 % of control
- T/C (endpoint: mean survival time, dose: 300.0 mg/kg/injection, schedule: Q01DX009 (ip), vehicle: Klucel (hydroxypropylcellulose) (HPC)): 89 % of control
- T/C [11]: 100 % of control

SMILES: O=C(O)c1ccccc1C(=O)c1ccc2c3c(cccc13)CC2
- T/C [4]: 104 % of control
- T/C [9]: 107 % of control
- T/C [5]: 107 % of control
- T/C [10]: 102 % of control
- T/C [6]: 105 % of control
- T/C [11]: 100 % of control

SMILES: Cc1cc(OCC#CCN(C)c2ccccc2)ccc1Cl
- T/C [1]: 89 % of control
- T/C [2]: 99 % of control
- T/C [3]: 96 % of control

SMILES: C/C=C/c1cc(C)cc(C)c1OC(C)CC (stereo not drawn)
- T/C [13]: 104 % of control
- T/C [16]: 93 % of control

SMILES: CCCCCCCCCCCSCCCCCCCCSCCCCCCCCCCC
- T/C (endpoint: mean survival time, dose: 100.0 mg/kg/injection, schedule: Q01DX001 (ip), vehicle: Klucel (hydroxypropylcellulose) (HPC)): 87 % of control
- T/C (endpoint: mean survival time, dose: 200.0 mg/kg/injection, schedule: Q01DX001 (ip), vehicle: Klucel (hydroxypropylcellulose) (HPC)): 92 % of control
- T/C (endpoint: mean survival time, dose: 400.0 mg/kg/injection, schedule: Q01DX001 (ip), vehicle: Klucel (hydroxypropylcellulose) (HPC)): 91 % of control

SMILES: CCCCCCCCCCCCCCCCCC(=O)NCCNC(=O)CCCCCCCCCCCCCCCCC
- T/C (endpoint: mean survival time, dose: 12.5 mg/kg/injection, schedule: Q04DX003 (ip), vehicle: Klucel (hydroxypropylcellulose) (HPC)): 103 % of control
- T/C [7]: 108 % of control
- T/C (endpoint: mean survival time, dose: 25.0 mg/kg/injection, schedule: Q04DX003 (ip), vehicle: Klucel (hydroxypropylcellulose) (HPC)): 107 % of control
- T/C [8]: 104 % of control
- T/C (endpoint: mean survival time, dose: 50.0 mg/kg/injection, schedule: Q04DX003 (ip), vehicle: Klucel (hydroxypropylcellulose) (HPC)): 104 % of control
- T/C [4]: 104 % of control
- T/C [9]: 90 % of control
- T/C [15]: 88 % of control
- T/C [10]: 96 % of control

SMILES: Cc1ccccc1C(O)C(Cl)(Cl)Cl (stereo not drawn)
- T/C (endpoint: median survival time, dose: 50.0 mg/kg/injection, schedule: Q04DX003 (ip), vehicle: Klucel (hydroxypropylcellulose) (HPC)): 118 % of control
- T/C (endpoint: median survival time, dose: 200.0 mg/kg/injection, schedule: Q04DX003 (ip), vehicle: Klucel (hydroxypropylcellulose) (HPC)): 157 % of control
- T/C (endpoint: median survival time, dose: 400.0 mg/kg/injection, schedule: Q04DX003 (ip), vehicle: Klucel (hydroxypropylcellulose) (HPC)): 204 % of control

SMILES: Cc1ncc(C(O)(c2ccccc2)C(C)C)n1Cc1ccccc1 (stereo not drawn)
- T/C (endpoint: mean survival time, dose: 100.0 mg/kg/injection, schedule: Q01DX001 (ip), vehicle: saline with Tween-80): 94 % of control
- T/C [14]: 95 % of control and 96 % of control
- T/C [13]: 95 % of control and 97 % of control
- T/C (endpoint: mean survival time, dose: 100.0 mg/kg/injection, schedule: Q04DX003 (ip), vehicle: saline with Tween-80): 101 % of control
- T/C (endpoint: mean survival time, dose: 200.0 mg/kg/injection, schedule: Q01DX001 (ip), vehicle: saline with Tween-80): 92 % of control
- T/C (endpoint: mean survival time, dose: 200.0 mg/kg/injection, schedule: Q01DX009 (ip), vehicle: saline with Tween-80): 95 % of control and 108 % of control
- T/C [16]: 93 % of control and 113 % of control
- T/C (endpoint: mean survival time, dose: 200.0 mg/kg/injection, schedule: Q04DX003 (ip), vehicle: saline with Tween-80): 97 % of control
- T/C (endpoint: mean survival time, dose: 400.0 mg/kg/injection, schedule: Q01DX001 (ip), vehicle: saline with Tween-80): 94 % of control
- T/C (endpoint: mean survival time, dose: 400.0 mg/kg/injection, schedule: Q01DX009 (ip), vehicle: saline with Tween-80): 102 % of control
- T/C (endpoint: mean survival time, dose: 400.0 mg/kg/injection, schedule: Q04DX002 (ip), vehicle: saline with Tween-80): 98 % of control and 103 % of control
- T/C (endpoint: mean survival time, dose: 400.0 mg/kg/injection, schedule: Q04DX003 (ip), vehicle: saline with Tween-80): 101 % of control

SMILES: C/C=C(\C)C(C#N)CCCC (stereo not drawn)
- T/C (endpoint: mean survival time, dose: 75.0 mg/kg/injection, schedule: Q01DX001 (ip), vehicle: carboxymethylcellulose (CMC)): 95 % of control
- T/C (endpoint: mean survival time, dose: 150.0 mg/kg/injection, schedule: Q01DX001 (ip), vehicle: carboxymethylcellulose (CMC)): 106 % of control
- T/C (endpoint: mean survival time, dose: 300.0 mg/kg/injection, schedule: Q01DX001 (ip), vehicle: carboxymethylcellulose (CMC)): 95 % of control

SMILES: CC1CCc2ccccc2N1C1=NCCO1 (stereo not drawn)
- T/C (endpoint: mean survival time, dose: 19.0 mg/kg/injection, schedule: Q04DX003 (ip), vehicle: saline): 97 % of control
- T/C (endpoint: mean survival time, dose: 38.0 mg/kg/injection, schedule: Q04DX003 (ip), vehicle: saline): 94 % of control
- T/C (endpoint: mean survival time, dose: 75.0 mg/kg/injection, schedule: Q01DX001 (ip), vehicle: saline): 102 % of control
